The text below walks through data of PMC8213385, “Development of a Fluorescent Assay to Search New Drugs Using Stable tdTomato-Leishmania, and the Selection of Galangin as a Candidate With Anti-Leishmanial Activity” (Frontiers in Cellular and Infection Microbiology, 2021).

The test system of assay [1] is Raw 264.7 macrophages infected with L. amaz/tc3. In words: Cytokine production (IL-12p70, IL-10) by macrophages, ELISA of culture supernatant. It counts as cell-based. As to conditions: 20 µM, 48 h. How it is done:
Then, the culture supernatant was recovered and maintained at -80°C until use. The culture supernatant concentrations of IL-12p70 and IL-10 (BD Biosciences, San Diego, USA) were determined by ELISA following the specifications of the supplier. Each condition was performed in quadruplicate.

Assay [2] concerns promastigotes of L. amaz/tc3. Put plainly: Fluorescence assay against promastigotes of L. amaz/tc3 (tdTomato). Type of assay: cell-based, Leishmania (Leishmania) amazonensis. As to conditions: Leishmania, 48 h, read-out: IC50 against promastigotes of L. amaz/tc3. How it is done: Then, we evaluated the efficacy of MI, a reference drug for leishmaniasis by the fluorescence method (L. amaz/tc3) and by the conventional method based in counting the parasite at the optic microscope (L. amaz/wt). Mid-log promastigotes of L. amaz/tc3 and L. amaz/wt were harvest and seeded (1 x 10^6/0.1 ml) with different concentrations of MI (40 to 0.6 µg/ml) in a 96-well plate at 23°C. Promastigotes cultured only in medium were the controls. Parasite viability was determined by measuring the fluorescence of L. amaz/tc3 in a plate reader (Tecan, Männedorf, Switzerland) and by counting the mobile promastigotes in a Neubauer chamber at the optic microscope (40x) (Leitz Wetzlar, Germany) at 48 h of incubation with MI. Viability was calculated with the formula: ViabilityL.amaz/tc3 =FLt/FLc×100 where, FLt is the fluorescence of treated culture, and FLc is the fluorescence of control; ViabilityL.amaz/wt=NPt/NPc×100 where, NPt is the number of promastigotes in the treated culture, and NPc is the number of promastigotes in control culture. Then, the 50% inhibitory concentration (IC50) of MI was estimated.
After fluorescence assay validation as it is described above, the method was used to evaluate in vitro the flavonoids anti-leishmanial activity. Mid-log promastigotes of L. amaz/tc3 were harvest and seeded with different concentrations of GAL (1,200 to 18.75 µM), MO, FI and RU (40 to 1.25 µM), and EGCG (300 to 18.75 µM). Positive control were promastigotes treated with PE (4 to 0.25 µM), the negative control were promastigotes cultured with medium only, and the blank was the culture medium. The parasites were incubated at 23°C for 48 h. The anti-leishmanial activity was determined by measuring the parasite fluorescence in a plate reader (Tecan, Männedorf, Switzerland). The viability was estimated as was described above for MI (fluorescent assay). The IC50 was calculated for each compound.

Assay [3] has as its system promastigotes of L. (L.) donovani. Also noted: method as in Kaur et al., 2010. The settings on record: GAL isolated from Alpinia galanga rhizomes ref Kaur et al., 2010; read-out: IC50 against promastigotes of L. (L.) donovani; cited from earlier work.
Assay [4] has as its system intracellular amastigotes of L. (L.) amazonensis. In words: Microscopic assay, counting intracellular amastigotes in Raw 264.7 macrophages at the optic microscope. Type of assay: cell-based, Leishmania (Leishmania) amazonensis. How it is done:
Furthermore, the efficacy of MI was also determined against intracellular amastigotes of L. amaz/tc3 and L. amaz/wt. Raw 264.7 macrophages were plated in 96-well black plate (5 x 10^4 cells/well) and in eight well Lab-Tek tissue culture slides (6.6 x 10^4 cells/ml) (Nunc, USA). The cells were infected with promastigotes in stationary phase of L. amaz/tc3 and L. amaz/wt (1:20 ratio) at 33°C, 5% CO2. After incubation, the infected macrophages were washed to remove non-internalized parasites with PBS plus P-S. New RPMI-1640 medium with different concentrations of MI (20 to 0.62 µg/ml) was added to each well and incubated at 33°C, 5% CO2 during 48 h. The anti-leishmanial activity of MI was determined by measuring the fluorescence of intracellular amastigotes of L. amaz/tc3 in a plate reader (Tecan, Männedorf, Switzerland). The viability was calculated as mentioned above, and the IC50 was also estimated. Simultaneously, the leishmanicidal activity of MI against L. amaz/wt was determined by the microscopy test. In this case, the infected macrophages were stained with Diff Quik (Biopur S.R.L., Rosario, Argentina) and the number of intracellular amastigotes was determined in 200-500 macrophages in treated and control cultures per slide under the immersion lens microscope (100x) (Leitz Wetzlar, Germany). The infection index (II) and the % infectivity (I) were calculated by the following formulas: II = IM × A, where IM= infected macrophages (%), A= number of amastigotes per infected macrophages; and I(%)=IIT/IIc×100, where IIT= infection index in treated cultures, IIC= infection index in control cultures ([Ayres et al., 2008]). The IC50 of MI was calculated.
Then, to estimate the IC50 values of GAL, FI and MO; and to confirm the IC50 of RU, the activity was evaluated quantifying the intracellular amastigotes at the optic microscope. We followed the same methodology described for MI (microscopic assay) in “In Vitro, Fluorescent Assay Validation” section and the range of concentrations were for GAL (30 to 7.5 µM), FI (60 to 15 µM), RU and MO (200 to 50 µM), EGCG (142 a 17.7 µM).

For `O=c1c(O)c(-c2ccccc2)oc2cc(O)cc(O)c12` [GAL, Galangin], the “IL-10 concentration in culture supernatant” value in assay [1] (between treated groups) is recorded as “did not show significant differences”. For the same compound, in assay [1] (infected macrophages, infected non-stimulated controls 72.11 pg/ml, p < 0.01), the “IL-12 p70 in culture supernatant, mean (range)” value is 232.2 pg/mL. Moreover, the IC50 in assay [2] is 53.1 µM; in assay [3], 100 µM; in assay [4] (Leishmania amazonensis, RAW264.7, Raw 264.7 macrophages, 48 h, optic microscope, read-out: Microscopic IC50 μM (SE), intracellular amastigotes), 20.6 µM. In addition, in assay [4] (CC50 for macrophages/IC50 for Leishmania (intracellular amastigotes; Ma from fluorescence IC50)), the “SI (Selectivity index)” value is recorded as 1.1.
